Common to all, as to format: functional
For assay [1], the system named is Micrococcus luteus. In words: Antibacterial activity against Micrococcus luteus ATCC 9341 after 24 hrs at 37 degC by paper disk assay. The conditions noted are these: ATCC 9341, 24 h.
Assay [2] relates to Bacillus subtilis. Briefly: Antibacterial activity against Bacillus subtilis PCI 219 after 24 hrs at 37 degC by paper disk assay. The conditions noted are these: PCI 219, 24 h.
Assay [3] relates to Candida albicans. In words: Antifungal activity against Candida albicans KF1 at 27 degC by paper disk assay.
In assay [4] the test system is Mucor racemosus. Briefly: Antifungal activity against Mucor racemosus IFO 5403 at 27 degC by paper disk assay.
Assay [5] concerns Saccharomyces. Briefly: Antifungal activity against Saccharomyces sake KF26 at 27 degC by paper disk assay.
Assay [6] has as its system Aspergillus niger. In words: Antifungal activity against Aspergillus niger ATCC 6275 at 27 degC by paper disk assay.

Values after ≈ are worked out from the molar mass of the structure shown.

Usually MIC stands for the smallest concentration in the dilution series that meets the test's criterion for growth inhibition. Regarding `COC1=C(OC)C(=O)c2c(O)c3c(c(O)c2C1=O)OCO3` [TRICROZARIN A], the MIC in assay [1] was 112 µg/mL (≈ 381 µM); in assay [2], 5.1 µg/mL (≈ 17.3 µM); in assay [3], 81.3 µg/mL (≈ 276 µM); in assay [4], 10.2 µg/mL (≈ 34.7 µM); in assay [5], 81.3 µg/mL (≈ 276 µM); in assay [6] it was 81.3 µg/mL (≈ 276 µM).

The values above are taken from ChEMBL document CHEMBL1150719, “Constituents of Tritonia crocosmaeflora, I. Tricrozarin A, a novel antimicrobial naphthazarin derivative” (1987).
